pIC50: −log10 of the molar value.
Legend:
Pak1 [1] = molecular target: T1, Pak1 (Homo sapiens, UniProt Q13153); assay: Pak1 inhibition in vitro; assay type: biochemical; details: read-out: IC50 values towards Pak1
Arachnoid cell AC07 = assay: Cell viability, MTT assay; assay type: cell-based; details: NF2+/+, 72 hrs
Procedure: (§1) Cells were plated at 3 × 10^3 cells per well in 96-well plates overnight and treated with various concentrations of Pak inhibitors for 72 hours. Cell viability was measured by MTT assay and the half maximal inhibitory concentration (IC50) was calculated.

Benign Ben-Men-1 = assay: Cell viability, MTT assay; assay type: cell-based; details: NF2−/−; 72 hrs; MTT
Procedure: as §1

Benign MN328 = assay: Cell viability, MTT assay; assay type: cell-based; details: NF2+/+
Procedure: as §1

Malignant KT21-MG1 = assay: Cell viability, MTT assay; assay type: cell-based; details: NF2−/−; 72 hrs; MTT
Procedure: as §1

Malignant MN525 = assay: Cell viability, MTT assay; assay type: cell-based; details: NF2+/+
Procedure: as §1

ABL2 (Arg) = molecular target: T2, ABL2 (Arg) (Homo sapiens, UniProt P42684); assay: Kinase selectivity, Z'-LYTE; assay type: biochemical
T2 construct: purchased Invitrogen (Life Technologies) SelectScreen Z'-LYTE
T2 sequence (P42684 whole entry): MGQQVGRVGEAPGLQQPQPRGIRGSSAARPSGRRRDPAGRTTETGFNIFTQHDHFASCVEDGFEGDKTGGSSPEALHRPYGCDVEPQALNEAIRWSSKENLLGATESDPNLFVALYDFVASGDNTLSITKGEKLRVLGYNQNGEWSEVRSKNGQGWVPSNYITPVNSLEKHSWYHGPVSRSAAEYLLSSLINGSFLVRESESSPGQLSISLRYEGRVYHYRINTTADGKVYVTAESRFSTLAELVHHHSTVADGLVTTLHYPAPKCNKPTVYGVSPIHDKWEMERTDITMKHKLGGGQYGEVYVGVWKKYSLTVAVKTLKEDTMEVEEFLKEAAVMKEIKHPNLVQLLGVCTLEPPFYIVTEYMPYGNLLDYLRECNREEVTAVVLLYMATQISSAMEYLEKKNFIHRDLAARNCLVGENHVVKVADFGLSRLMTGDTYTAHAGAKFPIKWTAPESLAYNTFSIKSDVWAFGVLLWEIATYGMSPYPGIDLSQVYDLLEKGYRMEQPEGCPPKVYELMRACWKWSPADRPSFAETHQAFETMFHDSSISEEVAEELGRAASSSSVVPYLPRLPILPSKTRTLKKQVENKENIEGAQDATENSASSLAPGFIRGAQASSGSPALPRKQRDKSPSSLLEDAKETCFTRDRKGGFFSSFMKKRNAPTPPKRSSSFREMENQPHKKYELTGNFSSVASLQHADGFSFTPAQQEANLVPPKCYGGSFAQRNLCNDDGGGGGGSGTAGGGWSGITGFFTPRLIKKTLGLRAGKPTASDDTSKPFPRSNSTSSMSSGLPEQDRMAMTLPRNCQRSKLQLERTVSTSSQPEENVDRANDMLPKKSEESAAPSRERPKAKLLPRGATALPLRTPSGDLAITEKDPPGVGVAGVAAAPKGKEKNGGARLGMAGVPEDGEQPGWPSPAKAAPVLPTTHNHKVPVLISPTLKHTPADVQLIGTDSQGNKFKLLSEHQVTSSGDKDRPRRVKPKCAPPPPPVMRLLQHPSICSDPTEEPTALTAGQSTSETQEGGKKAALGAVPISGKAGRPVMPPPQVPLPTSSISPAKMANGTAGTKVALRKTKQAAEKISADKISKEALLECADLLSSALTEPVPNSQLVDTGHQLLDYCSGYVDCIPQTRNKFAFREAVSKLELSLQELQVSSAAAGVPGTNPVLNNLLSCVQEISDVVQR
Procedure, shortened: (§2)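 Activity is measured with recombinant enzyme and a peptide whose phosphorylation state governs protease sensitivity; fluorescence distinguishes cleaved from intact peptide.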

AKT2 (PKB beta) = molecular target: T3, AKT2 (PKB beta) (Homo sapiens, UniProt P31751); assay: Kinase selectivity, Z'-LYTE; assay type: biochemical
T3 construct: purchased Invitrogen (Life Technologies) SelectScreen Z'-LYTE
T3 sequence (P31751 whole entry): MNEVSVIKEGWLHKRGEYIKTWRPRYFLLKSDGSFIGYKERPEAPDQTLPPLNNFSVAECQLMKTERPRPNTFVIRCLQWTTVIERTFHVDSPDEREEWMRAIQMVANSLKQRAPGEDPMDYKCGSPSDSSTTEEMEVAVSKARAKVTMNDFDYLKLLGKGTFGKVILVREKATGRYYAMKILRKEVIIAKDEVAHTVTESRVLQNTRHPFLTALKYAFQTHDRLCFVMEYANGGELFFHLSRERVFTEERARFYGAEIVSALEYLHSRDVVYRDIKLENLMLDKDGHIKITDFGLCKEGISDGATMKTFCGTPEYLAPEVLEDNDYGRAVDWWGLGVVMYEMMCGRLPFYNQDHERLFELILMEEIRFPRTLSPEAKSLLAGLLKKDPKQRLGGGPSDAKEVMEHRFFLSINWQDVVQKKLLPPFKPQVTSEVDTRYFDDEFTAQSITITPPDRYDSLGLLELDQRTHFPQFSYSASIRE
Procedure, shortened: as §2

AMPKA1/B1/G1 = molecular target: T4, AMPKA1/B1/G1 (Homo sapiens, UniProt Q13131); assay: Kinase selectivity, Z'-LYTE; assay type: biochemical
T4 construct: purchased Invitrogen (Life Technologies) SelectScreen Z'-LYTE
T4 sequence (Q13131 whole entry): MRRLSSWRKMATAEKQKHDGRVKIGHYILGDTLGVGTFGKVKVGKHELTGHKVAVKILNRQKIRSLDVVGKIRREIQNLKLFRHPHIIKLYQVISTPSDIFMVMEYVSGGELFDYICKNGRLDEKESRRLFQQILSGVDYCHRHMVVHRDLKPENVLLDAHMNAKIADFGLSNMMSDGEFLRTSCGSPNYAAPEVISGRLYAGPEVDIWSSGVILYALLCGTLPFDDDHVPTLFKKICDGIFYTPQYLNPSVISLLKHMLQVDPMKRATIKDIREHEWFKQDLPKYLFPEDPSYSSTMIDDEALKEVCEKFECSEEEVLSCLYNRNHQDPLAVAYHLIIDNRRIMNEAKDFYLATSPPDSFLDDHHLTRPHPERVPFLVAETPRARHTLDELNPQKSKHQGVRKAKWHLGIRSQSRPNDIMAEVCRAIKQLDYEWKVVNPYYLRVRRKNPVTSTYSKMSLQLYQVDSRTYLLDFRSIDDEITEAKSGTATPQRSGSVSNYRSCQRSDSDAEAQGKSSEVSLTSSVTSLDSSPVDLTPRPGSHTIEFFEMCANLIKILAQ
T4 sequence (Q9Y478 whole entry partner): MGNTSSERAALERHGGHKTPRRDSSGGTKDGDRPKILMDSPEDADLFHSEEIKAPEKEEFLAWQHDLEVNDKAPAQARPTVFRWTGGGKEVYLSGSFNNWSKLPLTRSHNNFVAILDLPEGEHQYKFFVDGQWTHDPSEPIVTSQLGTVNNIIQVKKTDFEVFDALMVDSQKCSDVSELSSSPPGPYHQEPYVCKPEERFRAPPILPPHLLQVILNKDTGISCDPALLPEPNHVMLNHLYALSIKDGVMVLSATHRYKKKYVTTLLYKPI
T4 sequence (P54619 whole entry partner): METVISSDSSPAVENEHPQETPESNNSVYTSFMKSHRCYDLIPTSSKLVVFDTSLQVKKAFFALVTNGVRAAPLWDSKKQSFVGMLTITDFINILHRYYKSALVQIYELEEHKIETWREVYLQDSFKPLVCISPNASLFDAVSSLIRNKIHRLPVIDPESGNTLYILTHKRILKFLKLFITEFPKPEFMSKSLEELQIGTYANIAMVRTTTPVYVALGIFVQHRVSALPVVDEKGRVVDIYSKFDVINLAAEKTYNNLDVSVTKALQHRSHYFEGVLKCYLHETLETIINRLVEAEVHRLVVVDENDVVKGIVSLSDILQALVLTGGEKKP
Procedure, shortened: as §2

AMPKA2/B1/G1 = molecular target: T5, AMPKA2/B1/G1 (Homo sapiens, UniProt P54646); assay: Kinase selectivity, Z'-LYTE; assay type: biochemical
T5 construct: purchased Invitrogen (Life Technologies) SelectScreen Z'-LYTE
Procedure, shortened: as §2

CDK2/cyclin A = molecular target: T6, CDK2/cyclin A (Homo sapiens, UniProt P24941); assay: Kinase selectivity, Z'-LYTE; assay type: biochemical
T6 construct: purchased Invitrogen (Life Technologies) SelectScreen Z'-LYTE
Procedure, shortened: as §2

CDK6/p25 = molecular target: T7, CDK6/p25 (Homo sapiens, UniProt Q00535); assay: Kinase selectivity, Z'-LYTE; assay type: biochemical
T7 construct: purchased Invitrogen (Life Technologies) SelectScreen Z'-LYTE
T7 sequence (Q00535 whole entry): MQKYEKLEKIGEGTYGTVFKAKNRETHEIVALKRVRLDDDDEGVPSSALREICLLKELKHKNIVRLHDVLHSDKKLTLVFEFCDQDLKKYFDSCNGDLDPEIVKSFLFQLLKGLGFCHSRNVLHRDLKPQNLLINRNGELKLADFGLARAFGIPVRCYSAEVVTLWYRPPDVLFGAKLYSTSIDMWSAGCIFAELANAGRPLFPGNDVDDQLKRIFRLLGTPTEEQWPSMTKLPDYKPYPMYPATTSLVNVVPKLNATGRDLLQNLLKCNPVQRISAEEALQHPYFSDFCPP
T7 sequence (Q15078 99-307 partner limits assumed): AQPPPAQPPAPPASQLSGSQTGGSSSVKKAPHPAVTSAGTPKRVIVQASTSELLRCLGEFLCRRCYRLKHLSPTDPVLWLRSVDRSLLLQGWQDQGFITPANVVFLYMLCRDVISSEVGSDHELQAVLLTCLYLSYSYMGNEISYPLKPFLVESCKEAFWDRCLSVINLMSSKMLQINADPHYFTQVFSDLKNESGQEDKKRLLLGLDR
Procedure, shortened: as §2

DYRK1B = molecular target: T8, DYRK1B (Homo sapiens, UniProt Q9Y463); assay: Kinase selectivity, Z'-LYTE; assay type: biochemical
T8 construct: purchased Invitrogen (Life Technologies) SelectScreen Z'-LYTE
T8 sequence (Q9Y463 whole entry): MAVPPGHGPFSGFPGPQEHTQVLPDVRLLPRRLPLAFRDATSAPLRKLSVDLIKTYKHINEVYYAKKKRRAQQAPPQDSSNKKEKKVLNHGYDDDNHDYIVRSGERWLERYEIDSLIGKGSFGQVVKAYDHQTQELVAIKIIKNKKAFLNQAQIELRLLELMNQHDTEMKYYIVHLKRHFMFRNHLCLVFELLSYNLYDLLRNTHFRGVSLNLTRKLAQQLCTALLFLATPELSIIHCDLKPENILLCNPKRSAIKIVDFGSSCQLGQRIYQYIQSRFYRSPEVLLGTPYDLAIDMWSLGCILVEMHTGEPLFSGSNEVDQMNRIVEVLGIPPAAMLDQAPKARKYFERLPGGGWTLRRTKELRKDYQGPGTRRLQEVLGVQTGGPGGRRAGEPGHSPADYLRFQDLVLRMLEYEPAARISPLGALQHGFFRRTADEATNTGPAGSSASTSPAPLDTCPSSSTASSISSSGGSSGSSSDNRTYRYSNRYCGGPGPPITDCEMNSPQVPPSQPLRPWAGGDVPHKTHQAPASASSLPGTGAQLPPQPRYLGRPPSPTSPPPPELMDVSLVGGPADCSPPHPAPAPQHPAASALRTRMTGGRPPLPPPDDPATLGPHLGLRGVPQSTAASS
Procedure, shortened: as §2

NTRK1 (TRKA) = molecular target: T9, NTRK1 (TRKA) (Homo sapiens, UniProt P04629); assay: Kinase selectivity, Z'-LYTE; assay type: biochemical
T9 construct: purchased Invitrogen (Life Technologies) SelectScreen Z'-LYTE
Procedure, shortened: as §2

Pak1 [2] = molecular target: T1, Pak1; assay: Kinase selectivity, Z'-LYTE; assay type: biochemical
Procedure, shortened: as §2

RET = molecular target: T10, RET (Homo sapiens, UniProt P07949); assay: Kinase selectivity, Z'-LYTE; assay type: biochemical
T10 construct: purchased Invitrogen (Life Technologies) SelectScreen Z'-LYTE
Procedure, shortened: as §2

[3] = system: KT21-MG1-Luc5D intracranial xenografts; assay: Orthotopic meningioma model, bioluminescence imaging; details: for loss of body weight compared with control littermates: SCID mice bearing KT21
Source text: Eight-week-old SCID mice were anesthetized with ketamine and their heads were stabilized in a small animal stereotaxic instrument. A midline sagittal incision was made on the cranial skin. A burr hole was drilled in the skull with coordinated 1.5 mm anterior and 1.5 mm lateral to the right from the bregma and a 5-μl Hamilton syringe loaded with cells was slowly inserted through the burr hole and ~0.5 mm downward to the skull base. The incision was closed using surgical absorbable gut suture.
Mice transplanted with meningioma cells were imaged using Xenogen IVIS Spectrum (Caliper, MA). Mice were injected intraperitoneally with Rediject D-Luciferin Ultra at 150 mg/kg under anesthetized with isofluorane. Luciferase activity was measured and all bioluminescence imaging was conducted when perk signal was reached. Once tumors were established (~3 weeks post-transplantation), mice were divided into groups for shRNA studies or drug treatments.
For drugs treatment, mice were dosed with Pak inhibitors daily for 14–21 days and tumor growth was monitored every week by BLI. Mean luminescence for each treatment groups (n = 5) was calculated as described previously.

RSK3 = molecular target: T11, RSK3 (Homo sapiens, UniProt Q15349); assay: Kinase selectivity, Z'-LYTE; assay type: biochemical
T11 construct: purchased Invitrogen (Life Technologies) SelectScreen Z'-LYTE
Procedure, shortened: as §2

RSK4 = molecular target: T12, RSK4 (Homo sapiens, UniProt Q9UK32); assay: Kinase selectivity, Z'-LYTE; assay type: biochemical
T12 construct: purchased Invitrogen (Life Technologies) SelectScreen Z'-LYTE
Procedure, shortened: as §2

KT21 cells = assay: Immunoblot of signaling pathways; assay type: cell-based
Procedure: Protein concentration was determined, and equal amount of total proteins were separated by SDS-PAGE. Antibodies used included those for Pak1 (2602), Pak2 (2608), Pak3 (2609), Pak4 (3242), phospho-Pak4-6 (3241), Mek1 (9122), Erk (9102), phospho-Erk1/2 (pThr202/pTyr204; 9101), Akt (9272), phospho-Akt (pThr308; 9275), S6 (2217), phospho-S6 (pSer235/pSer236; 4857), phospho-β-Catenin (pSer675; 4176), and cyclin D1 (2978) from Cell Signaling Technology; β-Catenin (610154) from BD Transduction Laboratories; and phospho-Pak (Ser141; 44940G) and phospho-Mek (Ser298; 44460G) from Invitrogen. GAPDH and β-actin were used as loading control.

T1 sequence (Q13153 whole entry): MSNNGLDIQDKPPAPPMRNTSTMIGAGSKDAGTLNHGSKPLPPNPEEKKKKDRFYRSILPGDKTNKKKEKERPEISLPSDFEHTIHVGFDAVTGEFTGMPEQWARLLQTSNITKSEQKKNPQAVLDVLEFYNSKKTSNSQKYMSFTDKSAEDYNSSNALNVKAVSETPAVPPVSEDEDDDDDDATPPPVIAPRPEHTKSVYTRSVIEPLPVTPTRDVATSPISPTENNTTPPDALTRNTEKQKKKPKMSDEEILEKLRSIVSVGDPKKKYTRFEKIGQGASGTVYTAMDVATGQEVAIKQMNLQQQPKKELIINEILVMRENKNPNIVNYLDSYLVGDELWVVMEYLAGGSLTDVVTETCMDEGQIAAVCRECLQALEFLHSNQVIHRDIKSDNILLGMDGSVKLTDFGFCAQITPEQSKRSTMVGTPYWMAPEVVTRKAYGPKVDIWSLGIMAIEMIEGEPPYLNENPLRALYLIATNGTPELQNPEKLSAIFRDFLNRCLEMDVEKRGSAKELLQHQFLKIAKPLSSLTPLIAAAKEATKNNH

| SMILES | pIC50 (Arachnoid cell AC07) | pIC50 (Benign Ben-Men-1) | pIC50 (Benign MN328; 72 hrs) | pIC50 (Malignant KT21-MG1) | pIC50 (Malignant MN525; 72 hrs) | % inhibition of activity (ABL2 (Arg)) [%] | % inhibition of activity (AKT2 (PKB beta)) [%] | % inhibition of activity (AMPKA1/B1/G1) [%] | % inhibition of activity (AMPKA2/B1/G1) [%] | % inhibition of activity (CDK2/cyclin A) [%] | % inhibition of activity (CDK6/p25) [%] | % inhibition of activity (DYRK1B) [%] | % inhibition of activity (NTRK1 (TRKA)) [%] | % inhibition of activity (Pak1 [2]) [%] | % inhibition of activity (RET) [%] | further results |
| --- | --- | --- | --- | --- | --- | --- | --- | --- | --- | --- | --- | --- | --- | --- | --- | --- |
| CCn1c(=O)c(-c2ccc(-c3noc(C)n3)cc2Cl)cc2cnc(Nc3ccc(C4CCN(C)CC4)cc3)nc21 [Frax716] | 6.54 | 6.66 | 6.14 | 5.96 | 6.31 | 82 | 9 | 13 | 29 | 0 | 3 | 13 | 92 | 95 | 91 | pIC50 (Pak1 [1]): 8.70; loss of body weight compared with control littermates ([3]; oral gavage 20 mg/kg/day): > 10%; reduction on bioluminescence ([3]; SCID mice, KT21, oral gavage 20 mg/kg/day, 2 weeks, P = 0.028): 60% |
| CCn1c(=O)c(-c2ccc(-c3cncc(C)n3)cc2Cl)cc2cnc(NCCC3CCN(C)CC3)nc21 [Frax1036] | 5.91 | 5.72 | 5.37 | 5.70 | 5.48 | – | – | – | – | −14 | – | – | – | – | 8 | % inhibition of activity (RSK3): 26%; % inhibition of activity (RSK4): 9%; loss of body weight compared with control littermates ([3]; Frax597 90 mg/kg/day, Frax1036 30 mg/kg/day, oral gavage): not seen; reduction in BMI signals ([3]; SCID mice, KT21, oral gavage 30 mg/kg/day, 2 weeks, P = 0.042): 37% |
| Cc1nc(Nc2[nH]nc3c2CN(C(=O)N[C@H](CN(C)C)c2ccccc2)C3(C)C)c2sccc2n1 [PF3758309, reference compound] | 5.86 | 7.53 | 5.47 | 6.42 | 5.27 | 77 | 0 | 100 | 100 | – | 18 | 7 | 73 | 100 | – | pIC50 (Benign MN328; 72 h): 5.47; pIC50 (Malignant MN525; 72 h): 5.28; total and phospho-protein levels of β-catenin (KT21 cells): only reduction on phosphorylation status |
